Results as given in ChEMBL document CHEMBL3286251, “Treatment of Immunological or Inflammatory Disorders with ITK Kinase Inhibitors” (ACS Med Chem Lett, 2014).
pKi: −log10 of the molar value.

Target: T1, Tyrosine-protein kinase ITK/TSK (Homo sapiens, UniProt Q08881)
T1 sequence (Q08881 whole entry): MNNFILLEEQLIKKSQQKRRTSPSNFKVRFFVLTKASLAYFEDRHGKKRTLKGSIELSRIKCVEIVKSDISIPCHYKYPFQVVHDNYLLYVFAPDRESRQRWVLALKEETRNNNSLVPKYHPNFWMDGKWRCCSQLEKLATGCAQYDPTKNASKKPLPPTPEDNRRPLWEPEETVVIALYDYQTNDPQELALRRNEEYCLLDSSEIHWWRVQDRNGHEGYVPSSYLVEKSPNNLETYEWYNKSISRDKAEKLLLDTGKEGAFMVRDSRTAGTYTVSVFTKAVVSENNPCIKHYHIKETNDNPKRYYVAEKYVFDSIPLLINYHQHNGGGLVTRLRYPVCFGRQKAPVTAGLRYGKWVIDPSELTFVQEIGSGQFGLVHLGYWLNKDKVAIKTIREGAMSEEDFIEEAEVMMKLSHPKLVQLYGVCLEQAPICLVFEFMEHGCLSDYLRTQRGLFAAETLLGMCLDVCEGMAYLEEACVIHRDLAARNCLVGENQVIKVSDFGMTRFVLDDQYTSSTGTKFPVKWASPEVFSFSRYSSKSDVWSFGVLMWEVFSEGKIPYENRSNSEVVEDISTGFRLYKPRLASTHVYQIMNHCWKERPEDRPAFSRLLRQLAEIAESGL
Assay: Inhibition of ITK (unknown origin) using Acetyl-EFPIYDFLPAKKK-NH2 peptide as substrate after 1 hr by LC-MS analysis

## CC12Cc3[nH]nc(C(=O)Nc4cnn(C(CS(C)(=O)=O)c5cccnc5)c4)c3CC1C2 (stereo unspecified)
  pKi: > 10.00
